Earlier results, collected in US8268549B2, “Method and assay for determining methylation of GAL3 promoter for early diagnosis of prostate cancer” (University of Maryland, Baltimore, priority 2005, dated 2012).

System: galectins

Structure (SMILES): O=C[C@H](O)[C@@H](O)[C@@H](O)[C@H](O)CO [D-galactose]
- relative binding affinity, times less effective than lactose (Lac) (galectins): ~200 times

Structure (SMILES): CC(=O)N[C@@H]1[C@@H](O[C@@H]2O[C@H](CO)[C@H](O)[C@H](O)[C@H]2O)[C@@H](O)[C@@H](CO)O[C@@H]1O [T-disaccharide]
- ligand quality for chimera galectins (chimera galectins): good ligand
